Like-named read-outs stand apart in the source and are kept apart here.
Tests used:
[1] = test system: female rats; assay: antifatigue effect: rota-rod; assay type: in vivo, rat; conditions: Rattus norvegicus, ip, 0.25 h, read-out: percentage of animals staying on the rota-rod more than 180 seconds; for responders at 300 mg/kg: 300 mg/kg i.p.; for responders at 400 mg/kg: 400 mg/kg i.p.; for responders at 600 mg/kg: 600 mg/kg i.p.
Protocol: The antifatigue effect was also examined with the following results. The antifatigue effect was investigated by administering the compounds of the formula (I) according to the present application to female rats intraperitoneally in saline solution and saline solution alone to the controls by the same route. Every 15 minutes (sessions) after treatment, the animals were placed on a 6 cm diameter rod, rotating at 16 r.p.m. The percentage of the animals capable of staying on the rota-rod for a duration of more than 180 seconds was then recorded.

[2] = test system: isolated rabbit hearts; assay: coronary vasodilator effect: coronary flow, isolated heart (Langendorff)
Protocol: (§1) The cardiokinetic effect on isolated heart was also investigated as follows. Rabbit hearts isolated by the Langendorff method were perfused with oxygenized ringer solution at 38.2° C. The isometric contractions, electrocardiogram and coronary flow were recorded using a "Battaglia-Rangoni" polygraph. By removing the oxygen from the perfusion fluid, metabolic damage was induced in the cardia muscle, up to an 80% reduction in the cardiac contractile force.
(§2) Under these conditions of prolonged anoxia the aerobic glycolysis of the myocardium is slowed down, accompanied by the storage of acid catabolites due to both the accumulation of pyruvic acid and its conversion to lactic acid which cannot be utilized because of the depression of pyridine enzymes, such as LDH (lactodehydrogenase). This has repercussions on the anaerobic glycolysis affecting an ever increasing number of enzymes, accompanied by a progressive and increasingly critical exhaustion of the myocardium. Thus a whole series of cardiac muscle fatigue levels occurs which can be observed by the behavior of the examined parameters, namely the contractile force, coronary flow, heart rate and cardiac rhythm. As soon as the contractile force was reduced by 80%, the perfusion fluid was once again oxygenized either without adding other compounds (controls) or with the addition of the compounds under examination.

[3] = test system: isolated rabbit hearts; assay: cardiokinetic effect on isolated heart (Langendorff): contractile force after anoxia, positive inotropic effect; conditions: 10 minutes from interruption of anoxic period
Protocol: as §1, §2
Table 3 below gives the percentage values of the contractile force of the heart, showing a positive inotropic effect, calculated after 10 minutes from the interruption of the anoxic period (myocardial restoration).

[4] = test system: isolated rat atrium; assay: antiarrhythmic effect, isolated rat atrium method of M. Libonati and G. Segre; conditions: Rattus norvegicus; for inhibition at 0.1 µg/mL / activation at 0.1 µg/mL: 1·10^-4 g/lt; for inhibition at 0.1 µg/mL / inhibition at 0.01 µg/mL / inhibition at 0.001 µg/mL: decrease; for activation at 0.1 µg/mL / activation at 0.01 µg/mL / activation at 0.001 µg/mL: increase; for inhibition at 0.01 µg/mL / activation at 0.01 µg/mL: 1·10^-5 g/lt; for inhibition at 0.001 µg/mL / activation at 0.001 µg/mL: 1·10^-6 g/lt
[5] = session 6 (every 15 minutes), * p < 0.05
[6] = read-out: Mean percent variation versus controls: excitability (-%)
[7] = read-out: Mean percent variation versus controls: frequency max (-%)
[8] = read-out: Mean percent variation versus controls: refractory period (+%)
[9] = read-out: Mean percent variation versus controls: rheobase (+%)

SMILES	responders at 300 mg/kg ([1]; session 1 (every 15 minutes)) [%]	responders at 300 mg/kg ([1]; session 2 (every 15 minutes)) [%]	responders at 300 mg/kg ([1]; session 3 (every 15 minutes)) [%]	responders at 300 mg/kg ([1]; session 4 (every 15 minutes)) [%]	responders at 300 mg/kg ([1]; session 5 (every 15 minutes)) [%]	responders at 300 mg/kg ([1]; session 6 (every 15 minutes)) [%]	responders at 400 mg/kg ([1]; session 1 (every 15 minutes)) [%]	responders at 400 mg/kg ([1]; session 2 (every 15 minutes)) [%]	responders at 400 mg/kg ([1]; session 3 (every 15 minutes)) [%]	responders at 400 mg/kg ([1]; session 4 (every 15 minutes)) [%]	responders at 400 mg/kg ([1]; session 5 (every 15 minutes)) [%]	responders at 400 mg/kg [1, 5] [%]	responders at 600 mg/kg ([1]; session 1 (every 15 minutes)) [%]	responders at 600 mg/kg ([1]; session 2 (every 15 minutes)) [%]	responders at 600 mg/kg ([1]; session 3 (every 15 minutes)) [%]	responders at 600 mg/kg ([1]; session 4 (every 15 minutes)) [%]	responders at 600 mg/kg ([1]; session 5 (every 15 minutes)) [%]	responders at 600 mg/kg [1, 5] [%]	Coronary flow, Mean ± S.E. ([2]; 1·10^-5 g/lt) [%]	Coronary flow, Mean ± S.E. ([2]; 1·10^-6 g/lt) [%]	also measured
CCCC(=O)OC(CC(=O)[O-])C[N+](C)(C)C (racemic) [butyryl-d,l-carnitine]	0	0	0	0	0	10	0	0	0	10	10	20	0	0	10	20	20	40	90.12 ± 8.18	74.01 ± 6.19	Contractile force, Mean ± S.E. ([3]; 1·10^-5 g/lt): 51.5 ± 5.02%; Contractile force, Mean ± S.E. ([3]; 1·10^-6 g/lt): 30.6 ± 4.51%; Contractile force, Mean ± S.E. ([3]; 5·10^-6 g/lt): 35.6 ± 6.19%; inhibition at 0.1 µg/mL [4, 6]: 63.7%; inhibition at 0.1 µg/mL [4, 7]: 62.3%; activation at 0.1 µg/mL [4, 8]: 38%; activation at 0.1 µg/mL [4, 9]: 55%; inhibition at 0.01 µg/mL [4, 6]: 31.9%; inhibition at 0.01 µg/mL [4, 7]: 30.4%; activation at 0.01 µg/mL [4, 8]: 25.9%; activation at 0.01 µg/mL [4, 9]: 40.8%; inhibition at 0.001 µg/mL [4, 6]: 12.9%; inhibition at 0.001 µg/mL [4, 7]: 24.8%; activation at 0.001 µg/mL [4, 8]: 18.2%; activation at 0.001 µg/mL [4, 9]: 28.3%
CCCCCCCC(=O)OC(CC(=O)[O-])C[N+](C)(C)C (racemic) [octanoyl-d,l-carnitine]	0	0	0	0	10	10	0	0	0	0	10	10	0	0	10	10	10	30	84.71 ± 6.20	76.24 ± 6.13	Coronary flow, Mean ± S.E. ([2]; 5·10^-6 g/lt): 76.00 ± 9.16%; Contractile force, Mean ± S.E. ([3]; 1·10^-5 g/lt): 37.8 ± 4.62%; Contractile force, Mean ± S.E. ([3]; 1·10^-6 g/lt): 25.2 ± 3.60%; Contractile force, Mean ± S.E. ([3]; 5·10^-6 g/lt): 29.8 ± 4.13%; inhibition at 0.1 µg/mL [4, 6]: 47.8%; inhibition at 0.1 µg/mL [4, 7]: 17.2%; activation at 0.1 µg/mL [4, 8]: 39.8%; activation at 0.1 µg/mL [4, 9]: 4.16%; inhibition at 0.01 µg/mL [4, 6]: 28.6%; inhibition at 0.01 µg/mL [4, 7]: 36.2%; activation at 0.01 µg/mL [4, 8]: 16.5%; activation at 0.01 µg/mL [4, 9]: 0%; inhibition at 0.001 µg/mL [4, 6]: 12.7%; inhibition at 0.001 µg/mL [4, 7]: 10.9%; activation at 0.001 µg/mL [4, 8]: 5.73%; activation at 0.001 µg/mL [4, 9]: 9.46%

— patent US4194006A, “Therapeutic application of acetyl-d,l-carnitine and other acyl derivatives of d,l-carnitine” (priority 1977, dated 1980)
